The text below walks through data of patent US10065970B2 (Genentech, Inc., priority 2015, dated 2018).

In the assay the target is PI3Kα (alpha) (Homo sapiens (Human), UniProt P42336). Put plainly: p110α (alpha) PI3K Binding Assay (ADP-Glo lipid kinase reaction). The class given is biochemical. As to conditions: PI3K alpha 0.2 nM, ATP 40 μM, PIP2:3PS 50 μM, 120 min, room temperature; Ki by Morrison Equation; read-out: PI3Kα-(alpha) ATP (Ki) micromolar. On the procedure: The ability of a compound of the invention to act as an inhibitor of PI3Kα was determined using the methods of Example 901.
PI3K Binding assays are intended for determining the biochemical potency of small molecule PI3K inhibitors. The PI3K lipid kinase reaction is performed in the presence of PIP2:3PS lipid substrate (Promega #V1792) and ATP. Following the termination if the kinase reaction, turnover of ATP to ADP by the phosphorylation of the lipid substrate is detected using the Promega ADP-Glo™ (Promega #V1792) assay. Reactions are carried out using the following conditions:
After 120 minutes of reaction time, the kinase reaction is terminated. Any ATP remaining after the reaction is depleted, leaving only ADP. Then the Kinase Detection Reagent is added to convert ADP to ATP, which is used in a coupled luciferin/luciferase reaction. The luminescent output is measured and is correlated with kinase activity.
All reactions are carried out at room temperature. A 3 μl mixture (1:1) of enzyme/lipid substrate solution is added to a 384 well white assay plate (Perkin Elmer #6007299) containing 50 nl of test compound or DMSO only for untreated controls. The reaction is started by the addition of 2 μl ATP/MgCl2. The kinase reaction buffer contains 50 mM HEPES, 50 mM NaCl, 3 mM MgCl2, 0.01% BSA, 1% DMSO, and enzyme and substrate concentrations as indicated in the above table. The reaction is stopped by the addition of 10 μL ADP-Glo reagent. Plates are read in a Perkin Elmer Envision system using luminescence mode. 10 point dose response curves are generated for each test compound. Ki values for each compound are determined using the Morrison Equation.
(ADP-Glo first removes unused ATP, then detects ADP through luciferase.)

As usually defined, the Ki is the equilibrium dissociation constant of an inhibitor or competing ligand from its target.

PI3Kα (alpha), sequence (P42336 whole entry): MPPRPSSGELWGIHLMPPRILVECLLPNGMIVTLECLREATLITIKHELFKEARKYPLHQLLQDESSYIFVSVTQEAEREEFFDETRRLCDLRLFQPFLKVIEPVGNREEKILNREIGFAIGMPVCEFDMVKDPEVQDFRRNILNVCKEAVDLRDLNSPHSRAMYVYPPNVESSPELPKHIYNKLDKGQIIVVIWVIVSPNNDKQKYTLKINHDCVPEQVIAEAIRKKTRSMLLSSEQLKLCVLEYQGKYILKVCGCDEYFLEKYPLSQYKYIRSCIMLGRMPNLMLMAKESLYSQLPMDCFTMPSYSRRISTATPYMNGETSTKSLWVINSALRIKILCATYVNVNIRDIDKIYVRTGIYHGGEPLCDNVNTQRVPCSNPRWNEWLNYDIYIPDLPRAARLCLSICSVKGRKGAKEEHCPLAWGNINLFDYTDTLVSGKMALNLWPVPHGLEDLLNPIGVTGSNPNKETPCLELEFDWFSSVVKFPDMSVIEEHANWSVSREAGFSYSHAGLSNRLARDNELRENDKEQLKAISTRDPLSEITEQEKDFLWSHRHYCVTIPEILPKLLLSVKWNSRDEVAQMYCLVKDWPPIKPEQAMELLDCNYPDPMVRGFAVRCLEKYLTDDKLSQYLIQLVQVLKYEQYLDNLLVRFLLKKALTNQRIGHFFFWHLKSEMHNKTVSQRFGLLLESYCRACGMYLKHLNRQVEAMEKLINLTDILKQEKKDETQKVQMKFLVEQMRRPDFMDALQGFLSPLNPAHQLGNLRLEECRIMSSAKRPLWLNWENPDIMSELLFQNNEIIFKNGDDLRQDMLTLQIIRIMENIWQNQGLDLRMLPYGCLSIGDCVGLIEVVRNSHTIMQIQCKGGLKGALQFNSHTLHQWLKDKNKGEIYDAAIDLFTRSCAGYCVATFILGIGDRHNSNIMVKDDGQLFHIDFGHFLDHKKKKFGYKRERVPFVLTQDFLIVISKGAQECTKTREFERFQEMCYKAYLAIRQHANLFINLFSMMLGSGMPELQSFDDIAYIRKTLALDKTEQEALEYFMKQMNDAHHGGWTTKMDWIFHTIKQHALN
PI3Kα (alpha), sequence (P27986 whole entry partner): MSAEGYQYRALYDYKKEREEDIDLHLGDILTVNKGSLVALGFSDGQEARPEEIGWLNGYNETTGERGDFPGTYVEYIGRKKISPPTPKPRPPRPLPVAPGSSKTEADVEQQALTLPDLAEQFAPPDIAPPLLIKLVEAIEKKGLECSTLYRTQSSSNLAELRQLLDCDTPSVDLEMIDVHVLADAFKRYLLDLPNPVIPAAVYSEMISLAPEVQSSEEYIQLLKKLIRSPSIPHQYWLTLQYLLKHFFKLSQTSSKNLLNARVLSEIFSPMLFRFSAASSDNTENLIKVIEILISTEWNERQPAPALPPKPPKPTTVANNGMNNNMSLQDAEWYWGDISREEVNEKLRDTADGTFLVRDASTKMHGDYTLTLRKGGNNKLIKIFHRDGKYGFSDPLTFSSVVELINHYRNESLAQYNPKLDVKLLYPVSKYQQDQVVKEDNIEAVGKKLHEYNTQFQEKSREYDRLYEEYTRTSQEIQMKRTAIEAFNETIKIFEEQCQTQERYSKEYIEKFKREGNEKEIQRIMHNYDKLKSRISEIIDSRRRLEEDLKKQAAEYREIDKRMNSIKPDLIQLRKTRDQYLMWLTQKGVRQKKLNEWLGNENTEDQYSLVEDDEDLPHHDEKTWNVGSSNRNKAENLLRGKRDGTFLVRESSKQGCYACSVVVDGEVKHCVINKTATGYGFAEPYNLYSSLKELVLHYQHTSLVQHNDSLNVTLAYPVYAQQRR

Take `CC[C@@H](Oc1cc2c3c(c1)nc(-c1ccc(-c4nc[nH]n4)cc1)n3CCCCO2)C(N)=O` (single isomer, unassigned) [Example 267]: the inhibition constant (Ki) was found to be 1.28 nM.

In the case of `CCc1cc(-c2nc3cc(N4CCC[C@H]4C(N)=O)cc4c3n2CCCO4)cc2nc(N)oc12` [Example 224, (S)-1-(1-(2-Amino-7-ethylbenzo[d]oxazol-5-yl)-8,9-dihydro-7H-6-oxa-2,9a-diazabenzo[cd]azulen-4-yl)pyrrolidine-2-carb oxamide], the inhibitory constant (Ki) amounted to 1.62 nM.

For `NC(=O)[C@@H](Nc1cc2c3c(c1)nc(N1Cc4cnc(N)nc4C1)n3CCCO2)C1CC1` [Example 149, (S)-2-((1-(2-Amino-5H-pyrrolo[3,4-d]pyrimidin-6(7H)-yl)-8,9-dihydro-7H-6-oxa-2,9a-diazabenzo[cd]azulen-4-yl)amino)-2-cyclopropylacetamide], the Ki is 18.2 nM.

In the case of `NC(=O)[C@@H](Nc1cc2c3c(c1)nc(-c1ccnc4[nH]ncc14)n3CCCO2)C1CC1` [Example 169, (S)-2-((1-(1H-Pyrazolo[3,4-b]pyridin-4-yl)-8,9-dihydro-7H-6-oxa-2,9a-diazabenzo[cd]azulen-4-yl)amino)-2-cyclopropylacetamide], the Ki was 3.92 nM.

Turning to `NC(=O)[C@@H](Oc1cc2c3c(c1)nc(-c1ccc4nc(N)sc4c1)n3CCCCO2)C1CC1` (single isomer, unassigned) [Example 281], the Ki is 0.027 nM.

For the compound `COC[C@](C)(C(N)=O)n1cc(-c2cc3c4c(c2)nc(-c2ccc5oc(N)nc5c2)n4CCCO3)cn1` (single isomer, unassigned) [Example 232], the Ki was determined as 0.311 nM.

On to `CS(=O)(=O)c1ccc(-c2nc3cc(N[C@H](C(N)=O)C4CC4)cc4c3n2CCCO4)cc1` [Example 137, (S)-2-Cyclopropyl-2-((1-(4-(methylsulfonyl)phenyl)-8,9-dihydro-7H-6-oxa-2,9a-diazabenzo[cd]azulen-4-yl)amino)acetamide], for which the inhibitory constant (Ki) is 916 nM.

For `NC(=O)c1ccc(-c2nc3cc(N[C@H](C(N)=O)C4CC4)cc4c3n2CCCO4)cc1F` [Example 188, (S)-4-(4-((2-Amino-1-cyclopropyl-2-oxoethyl)amino)-8,9-dihydro-7H-6-oxa-2,9a-diazabenzo[cd]azulen-1-yl)-2-fluorobenzamide], the Ki was 81.4 nM.

Regarding `COc1ccc(-c2nc3cc(N[C@H](C(N)=O)C4CC4)cc4c3n2CCCO4)cc1C(N)=O` [Example 164, (S)-5-(4-((2-Amino-1-cyclopropyl-2-oxoethyl)amino)-8,9-dihydro-7H-6-oxa-2,9a-diazabenzo[cd]azulen-1-yl)-2-methoxybenzamide], the Ki turned out to be 160 nM.

For the compound `NC(=O)[C@@H](Nc1cc2c3c(c1)nc(-c1ccc4c(c1)OCCO4)n3CCCO2)C1CC1` [Example 138, (S)-2-Cyclopropyl-2-((1-(2,3-dihydrobenzo[b][1,4]dioxin-6-yl)-8,9-dihydro-7H-6-oxa-2,9a-diazabenzo[cd]azulen-4-yl)amino)acetamide], the Ki turned out to be 22.9 nM.

For the compound `COC[C@H](Oc1cc2c3c(c1)nc(-c1ccc4nc(N)sc4c1)n3CCCCO2)C(N)=O` (single isomer, unassigned) [Example 303], the Ki was 5.62 nM.

For the compound `NC(=O)[C@@H](Nc1cc2c3c(c1)nc(N1CCn4ncnc4C1)n3CCCO2)C1CC1` [Example 161, (S)-2-Cyclopropyl-2-((1-(5,6-dihydro-[1,2,4]triazolo[1,5-a]pyrazin-7(8H)-yl)-8,9-dihydro-7H-6-oxa-2,9a-diazabenzo[cd]azulen-4-yl)amino)acetamide], the inhibitory constant (Ki) was determined as 121 nM.

In the case of `NC(=O)[C@@H](Nc1cc2c3c(c1)nc(-c1ccc4nc(N)oc4c1)n3CCCO2)C1CC1` [Example 207, (S)-2-((1-(2-Aminobenzo[d]oxazol-6-yl)-8,9-dihydro-7H-6-oxa-2,9a-diazabenzo[cd]azulen-4-yl)amino)-2-cyclopropylacetamide], the Ki was found to be 0.988 nM.

For the compound `CO[C@@H]1CCN(c2cc3c4c(c2)nc(-c2ccc5oc(N)nc5c2)n4CCCCO3)[C@@H]1C(N)=O` [Example 310, (2S,3R)-1-(1-(2-Aminobenzo[d]oxazol-5-yl)-7,8,9,10-tetrahydro-6-oxa-2,10a-diazacycloocta[cd]inden-4-yl)-3-methoxypyrrolidine-2-carboxamide], the Ki turned out to be 0.171 nM.

`C[C@@H]1Cn2c(-c3ccc4oc(N)nc4c3)nc3cc(O[C@H](C)C(N)=O)cc(c32)O1` [Example 251, (R)-2-(((R)-2-(2-Aminobenzo[d]oxazol-5-yl)-4-methyl-3,4-dihydro-5-oxa-1,2a-diazaacenaphthylen-7-yl)oxy)propanamide]: the inhibition constant (Ki) amounted to 2.27 nM.

`NC(=O)[C@@H](Nc1cc2c3c(c1)nc(-c1ccc4[nH]c(=O)oc4c1)n3CCCO2)C1CC1` [Example 155, (S)-2-Cyclopropyl-2-((1-(2-oxo-2,3-dihydrobenzo[d]oxazol-6-yl)-8,9-dihydro-7H-6-oxa-2,9a-diazabenzo[cd]azulen-4-yl)amino)acetamide]: the inhibitory constant (Ki) is 78 nM.

Regarding `NC(=O)[C@@H]1CCCN1c1cc2c3c(c1)nc(-c1ccc(-c4nc[nH]n4)c(Cl)c1)n3CCCO2` [Example 222, (S)-1-(1-(3-Chloro-4-(1H-1,2,4-triazol-3-yl)phenyl)-8,9-dihydro-7H-6-oxa-2,9a-diazabenzo[cd]azulen-4-yl)pyrrolidine-2-carb oxamide], the Ki was found to be 0.261 nM.

Take `NC(=O)[C@@H](Nc1cc2c3c(c1)nc(-c1ccc4nc(N)sc4c1)n3CCCO2)C1CC1` [Example 170, (S)-2-((1-(2-Aminobenzo[d]thiazol-6-yl)-8,9-dihydro-7H-6-oxa-2,9a-diazabenzo[cd]azulen-4-yl)amino)-2-cyclopropylacetamide]: the inhibitory constant (Ki) was found to be 0.614 nM.

For `NC(=O)[C@@H](Nc1cc2c3c(c1)nc(N1CCCOCC1)n3CCCO2)C1CC1` [Example 180, (S)-2-((1-(1,4-Oxazepan-4-yl)-8,9-dihydro-7H-6-oxa-2,9a-diazabenzo[cd]azulen-4-yl)amino)-2-cyclopropylacetamide], the inhibition constant (Ki) was 664 nM.

Consider `Nc1nc2cc(-c3nc4cc(N[C@H]5C[C@@H](F)C5)cc5c4n3CCCO5)ccc2o1` (single isomer, unassigned) [Example 203, 1-(2-Aminobenzo[d]oxazol-5-yl)-N-((1s,3s)-3-fluorocyclobutyl)-8,9-dihydro-7H-6-oxa-2,9a-diazabenzo[cd]azulen-4-amine], for which the inhibition constant Ki was 1.37 nM.

Take `COc1ccc(-n2nc3cc(N[C@H](C(N)=O)C4CC4)cc4c3c2CCCO4)cn1` [Example 213, (S)-2-Cyclopropyl-2-((1-(6-methoxypyridin-3-yl)-1,7,8,9-tetrahydrooxepino[4,3,2-cd]indazol-4-yl)amino)acetamide]: the Ki was determined as 23.8 nM.

Take `C[C@H](Oc1cc2c3c(c1)nc(-c1ccc4oc(N)nc4n1)n3CCCO2)C(N)=O` [Example 266, (S)-2-((1-(2-Aminooxazolo[4,5-b]pyridin-5-yl)-8,9-dihydro-7H-6-oxa-2,9a-diazabenzo[cd]azulen-4-yl)oxy)propanamide]: the Ki came out at 0.108 nM.

Consider `C[C@H](Oc1cc2c3c(nc(-c4ccc5oc(N)nc5c4)n3CCCO2)c1F)C(N)=O` [Example 240, (S)-2-((1-(2-Aminobenzo[d]oxazol-5-yl)-3-fluoro-8,9-dihydro-7H-6-oxa-2,9a-diazabenzo[cd]azulen-4-yl)oxy)propanamide], for which the Ki is 1.61 nM.

`COc1ncc(-c2nc3cc(N[C@H](C(N)=O)C4CC4)cc4c3n2CCCO4)cn1` [Example 128, (S)-2-cyclopropyl-2-((1-(2-methoxypyrimidin-5-yl)-8,9-dihydro-7H-6-oxa-2,9a-diazabenzo[cd]azulen-4-yl)amino)acetamide]: the Ki amounted to 73.5 nM.

Regarding `Nc1nc2cc(-c3nc4c(F)c(Br)cc5c4n3CCCO5)ccc2o1` [Example 193, 5-(4-Bromo-3-fluoro-8,9-dihydro-7H-6-oxa-2,9a-diazabenzo[cd]azulen-1-yl)benzo[d]oxazol-2-amine], the Ki was found to be 5.17 nM.

On to `C[C@H](Oc1cc2c3c(c1)nc(-c1cnc(-c4ncn[nH]4)c(F)c1)n3CCCCO2)C(N)=O` [Example 307, (S)-2-((1-(5-Fluoro-6-(1H-1,2,4-triazol-5-yl)pyridin-3-yl)-7,8,9,10-tetrahydro-6-oxa-2,10a-diazacycloocta[cd]inden-4-yl)oxy)propanamide], for which the inhibitory constant (Ki) was less than 0.02 nM.

With `NC(=O)[C@@H](Nc1cc2c3c(c1)nc(N1CCc4nccnc4C1)n3CCCO2)C1CC1` [Example 179, (S)-2-Cyclopropyl-2-((1-(7,8-dihydropyrido[3,4-b]pyrazin-6(5H)-yl)-8,9-dihydro-7H-6-oxa-2,9a-diazabenzo[cd]azulen-4-yl)amino)acetamide], the Ki was found to be 154 nM.

As for `NC(=O)c1cc(-c2nc3cc(N[C@H](C(N)=O)C4CC4)cc4c3n2CCCO4)ccn1` [Example 151, (S)-4-(4-((2-Amino-1-cyclopropyl-2-oxoethyl)amino)-8,9-dihydro-7H-6-oxa-2,9a-diazabenzo[cd]azulen-1-yl)picolinamide], the inhibition constant (Ki) is 10.2 nM.
